A short description of the data set: Human HepG2 cell viability assay in 384 well format. The format is toxicity, cell-based. Further details: dose 125 nL, time 70.5 hour; concentration not given beside the values. To be noted: HepG2 cells, read-out: Inhibition.
Regarding `Cc1cc(F)ccc1C(=O)N1C[C@@H]2COC[C@]2(COCC2CC2)C1`, the cytotoxicity at 70.5 h was -10.8%.
Regarding `CC(C)C(=O)N1CCN(CCOc2cccc(C#N)c2)CC1`, the cytotoxicity at 70.5 h was -5.29%.
Consider `CN1CCN(Cc2ccc(Cl)cc2)CC1C(=O)O` (stereo not given), for which the cytotoxicity at 70.5 h was -6.51%.
Then `CCc1noc(C(C)N2CCN(C(=O)CN3CCOCC3)CC2)n1` (stereo not given), with 0.684%; and `Cc1cc(C)cc(CCC(=O)NC(C)c2nnn[nH]2)c1` (stereo not given), with -2.97%; and `CCOc1cc(N2CCN(C(=O)c3ccc(OC)cc3)CC2)nc(C)n1`, with 5.38%.
Consider `OCC1(CNC2CCc3cc4c(cc32)OCCO4)CC1` (stereo not given), for which the cytotoxicity at 70.5 h amounted to 22.1%.
For the molecule `Cc1nc(CN(C)C2CCN(Cc3cccc4c3OCCO4)C2)no1` (stereo not given), the cytotoxicity at 70.5 h amounted to 28.1%.
In the case of `CC(=O)N1CCN(c2cc(-n3cccc3)ncn2)CC1`, the cytotoxicity at 70.5 h was -7.94%.
Then `CN(Cc1nnc2n1CCC2)C(=O)c1ccc2c(c1)CCO2`, with -3.65%; and `COc1cccc(N2CCN(CC(O)c3cc(C)sc3C)CC2)c1` (stereo not given), with -2.76%.
As to `COc1cccc(-c2ncc(CN3CC[C@H]4CC[C@@H](C3)N4)s2)c1`, the cytotoxicity at 70.5 h came to 9.35%.
Turning to `CCc1cccc(NC(=O)NC2CCc3nc(C)nn3C2)c1` (stereo not given), the cytotoxicity at 70.5 h came out at 13.8%.
For `Cc1nn(C)cc1C1SCC(=O)Nc2c1c(O)nn2C(C)C` (stereo not given), the cytotoxicity at 70.5 h is -31.1%.
For the molecule `Cc1cnn(CC2CCCCN2C(=O)c2cnc3n[nH]c(C)c3c2)c1` (stereo not given), the cytotoxicity at 70.5 h is -4.13%.
Turning to `Cc1nc(CN2CCc3ncnc(C)c3CC2)cs1`, the cytotoxicity at 70.5 h was -6.23%.
For `CS(=O)(=O)N1CCC[C@H]1c1ncnn1-c1ccc2c(c1)OCO2`, the cytotoxicity at 70.5 h was -1.95%.
For the molecule `CN1C[C@H]2CN(Cc3cccc(OC(F)(F)F)c3)CCN2C1=O`, the cytotoxicity at 70.5 h was 8.83%.
Consider `Cc1c(NCCCOc2cccc(C#N)c2)cccc1C(N)=O`, for which the cytotoxicity at 70.5 h was 6.97%.
As for `CC(C)(C)c1nc(CN2CCCC2CCc2ccccc2)no1` (stereo not given), the cytotoxicity at 70.5 h came to 13.1%.
Regarding `CN(Cc1nnc(C2CC2)n1C)S(=O)(=O)c1ccccc1F`, the cytotoxicity at 70.5 h was 4.23%.
With `CCCC(=O)N1CCC(N2CC[C@@](O)(CCOC)[C@H](C)C2)CC1`, the cytotoxicity at 70.5 h is -5%.
For `O=C1NCCCc2[nH]c(C3CCN(C(=O)C4CC4)CC3)nc21`, the cytotoxicity at 70.5 h came to 11.6%.
For the molecule `Cc1nc2c(c(N(C)C)n1)CCN(C(=O)c1sccc1S(N)(=O)=O)C2`, the cytotoxicity at 70.5 h was -7%.
In the case of `CCN(CC1CC1)C(=O)NCc1nnc2n1CCC2`, the cytotoxicity at 70.5 h stood at 1.57%.
For `COc1ccc(-c2cc(C(=O)NCCC(C)C)n(C)n2)cc1`, the cytotoxicity at 70.5 h was determined as 4.25%.
Take `Cc1cc(C)cc(C(=O)N2CCCN(CC(N)=O)CC2)c1`: the cytotoxicity at 70.5 h was 37.8%.
Consider `CSc1ccccc1CN1CCn2nc(CNC(=O)N(C)C)cc2C1`, for which the cytotoxicity at 70.5 h was -8.7%.
`CCNC(=O)NCc1ccccc1NS(=O)(=O)c1ccccc1`: the cytotoxicity at 70.5 h is -10.5%.
On to `Cc1noc(C2CCN(C(=O)Nc3ccc(N(C)C)nc3)CC2)n1`, for which the cytotoxicity at 70.5 h was 1.32%.
As to `c1ccc2c(c1)CC(N1CCCN(Cc3cccc4nonc34)CC1)C2`, the cytotoxicity at 70.5 h was 21.6%.
Regarding `Cc1cccc(S(=O)(=O)N2CCC3(CC2)CC(N(C)C)CO3)c1` (stereo not given), the cytotoxicity at 70.5 h is -10.7%.
With `Clc1cccc(C2CCN(c3ncnc4c3CCNC4)C2)c1` (stereo not given), the cytotoxicity at 70.5 h was -1.22%.
For `O=C1CC[C@]2(CC[C@@H](NCc3ccoc3)CC2)N1`, the cytotoxicity at 70.5 h is -2.86%.
As for `CSC1(CNC(=O)N(C)Cc2ccc(Cl)s2)CCOCC1`, the cytotoxicity at 70.5 h amounted to 30.6%.
Consider `O=C(COc1ccc2c(c1)CCC2)NS(=O)(=O)c1cccnc1`, for which the cytotoxicity at 70.5 h is -10.3%.
In the case of `COCc1nc(C2CCN(Cc3nccn3C)CC2)no1`, the cytotoxicity at 70.5 h was -4.44%.
`CCc1ccc(CN2C[C@@H]3OCCN(c4ccnc(N(C)C)n4)[C@@H]3C2)o1`: the cytotoxicity at 70.5 h stood at 5.59%.
For the molecule `O=c1[nH]c(-c2ccncc2)nc2c1CCN(S(=O)(=O)N1CCCC1)C2`, the cytotoxicity at 70.5 h was -13.7%.
With `COc1c(C2CCCN2C(=O)c2csc(C3CC3)n2)c(C)nn1C` (stereo not given), the cytotoxicity at 70.5 h amounted to 15.2%.
As for `COCc1ncn2c1CN(C(=O)C1CC=CC1)CC2`, the figure is -8.8%; as for `c1ccc(-c2nc3c(c(NCCc4c[nH]cn4)n2)CCNC3)cc1`, -12.1%.
For `O=C1CC[C@]2(CC[C@@H](NCc3ccsc3)CC2)N1Cc1ccccc1`, the cytotoxicity at 70.5 h is -3.82%.
Regarding `CC(C)Cc1cc(CNC(=O)C2CCCN(Cc3ccco3)C2)no1` (stereo not given), the cytotoxicity at 70.5 h was -4.13%.
In the case of `COCCCC1CCCCN1S(=O)(=O)c1cccc(C#N)c1` (stereo not given), the cytotoxicity at 70.5 h turned out to be 4.41%.
Consider `Cc1nc(C2CCCN2C(=O)COCc2ccccc2)no1` (stereo not given), for which the cytotoxicity at 70.5 h is -10.2%.
As to `COc1ccc(C2CCCCCN2S(=O)(=O)N(C)C)cc1` (stereo not given), the cytotoxicity at 70.5 h was -7.96%.
Then `O=C(CCOc1ccccc1F)N1CCCCC1Cn1cccn1` (stereo not given), with -4.38%; and `Cc1nc(CN(C)C2CCN(CCCOc3ccc(F)cc3)C2)no1` (stereo not given), with 22.2%.
For the molecule `CCn1ccnc1CN1CCCN(C(=O)c2cnn(C)c2)CC1`, the cytotoxicity at 70.5 h was -7.1%.
For the molecule `CCCN1CCC(NC(=O)c2csc(C)c2C)CC1`, the cytotoxicity at 70.5 h is -7.88%.
As for `CNC(=O)COC1COC2(CCN(c3ncccn3)CC2)C1` (stereo not given), the cytotoxicity at 70.5 h is -1.44%.
`COCCc1noc(CNC2CCSC2)n1` (stereo not given): the cytotoxicity at 70.5 h is -10.2%.
In the case of `C[C@@H]1CN(C(=O)c2cc(Cn3cnc4ccccc43)on2)C[C@H](C)O1`, the cytotoxicity at 70.5 h was -5.79%.
As for `Cc1oc(-c2ccoc2)nc1CN1CCC[C@H]1CO`, the figure is -3.95%; as for `CN1CCN(C(=O)[C@H]2CC[C@@H]3[C@@H](CCN3Cc3nccs3)O2)CC1`, -13.2%.
With `CN(C)C(=O)Cn1cc(C(=O)NCCc2ccc(Cl)cc2Cl)nn1`, the cytotoxicity at 70.5 h was -0.867%.
Take `CCC(=O)NCc1ccc(N2CCCCC2)cc1`: the cytotoxicity at 70.5 h was -2.28%.
As for `COc1ccc(NC(=O)NC(C)c2nc[nH]n2)cc1` (stereo not given), the cytotoxicity at 70.5 h is -0.0192%.
As for `CN(C)c1ccc(NC(=O)N2CCCC2c2ccsc2)cn1` (stereo not given), the cytotoxicity at 70.5 h is -12.1%.
Turning to `COc1ccccc1C1(C(=O)NCCN2CCOCC2)CCOCC1`, the cytotoxicity at 70.5 h is -17.1%.
Turning to `CC(C)CN1CC[C@H]2OCC[C@@H](C(=O)N3CCCO3)[C@@H]2C1`, the cytotoxicity at 70.5 h was -18.2%.
On to `Cc1cc(C)c(CNC(=O)NCC2CCCO2)c(=O)[nH]1` (stereo not given), for which the cytotoxicity at 70.5 h stood at 26.7%.
Turning to `CSc1ncc(CNC(C)c2cnn(-c3ccc(F)cc3F)c2C)cn1` (stereo not given), the cytotoxicity at 70.5 h was -2.86%.
As for `CCc1nc(CN(C)C2CCCN(c3cccnn3)C2)no1` (stereo not given), the cytotoxicity at 70.5 h is 16.7%.
As for `Cc1nn2c(-c3snnc3C)nnc2s1`, the figure is 27.8%.
In the case of `CC(C)NC(=O)C1CN(C(=O)Cc2ccccc2)CC12CCOCC2` (stereo not given), the cytotoxicity at 70.5 h is -13.2%.
On to `CC(=O)NCc1cc(-c2cccs2)n(C2CCCC2)n1`, for which the cytotoxicity at 70.5 h was -2.19%.
Take `CSc1ccc(NCC(=O)Nc2c(C)nn(C)c2C)cc1F`: the cytotoxicity at 70.5 h was -4.28%.
Turning to `Cc1ccc(C(=O)NC2CCN(Cc3cccc4c3OCCO4)CC2)s1`, the cytotoxicity at 70.5 h was -2.59%.
In the case of `COc1ccc(NC(=O)CCNc2ncccn2)cn1`, the cytotoxicity at 70.5 h was -30.9%.
Turning to `O=C(c1ccc[nH]1)N1CCOCC2(C1)CN(c1ccccc1)C(=O)CO2` (stereo not given), the cytotoxicity at 70.5 h was -9.1%.
As to `CN(C)CC1(O)CCCN(C(=O)Cc2ccc(Cl)c(Cl)c2)C1` (stereo not given), the cytotoxicity at 70.5 h was -2.73%.
Then `Cc1cnn(CC2CN(CC(=O)N(C)Cc3cnn(C)c3)CCO2)c1` (stereo not given), with -7.34%.
On to `Cn1cc(CNC2CC3(CCN(S(C)(=O)=O)CC3)c3ccccc32)cn1` (stereo not given), for which the cytotoxicity at 70.5 h is -11.7%.
For the molecule `CCC(CC)NC(=O)NCc1ccnc(-n2ccnc2C)c1`, the cytotoxicity at 70.5 h is -2.5%.
Consider `CCNc1cc2c(nn1)CCN(C(=O)c1cc3cc(C)ccc3o1)C2`, for which the cytotoxicity at 70.5 h amounted to 5.36%.
`O=C(CN1C=Nc2ccccc2S1(=O)=O)NCc1ccccc1F`: the cytotoxicity at 70.5 h is -9.4%.
Regarding `CCN1CCN(C(=O)c2cc(F)cc3nc(C)c(C)nc23)CC1`, the cytotoxicity at 70.5 h is -12.2%.
Then `O=C1CC(C(=O)Nc2nnc(-c3cccs3)[nH]2)c2ccccc2N1` (stereo not given), with -2.83%; and `Cc1cccc(CS(=O)(=O)CC(=O)NCCCOC(C)C)c1`, with 16.8%.
As for `COCCN1CC(=O)N(C(C)C)C(C)(C)C1`, the cytotoxicity at 70.5 h was determined as 0.521%.
For the molecule `Cc1cc(NC(=O)Cn2nc(C)c(C#N)c2N)ccc1Br`, the cytotoxicity at 70.5 h is -7.3%.
`NC(=O)Cn1ccc(NC(=O)C2(c3cccc(Cl)c3)CC2)n1`: the cytotoxicity at 70.5 h was -7.03%.
For the molecule `CCCOC(C)C(=O)N1CCC(O)(c2ccc3nc(C)ccc3c2)CC1` (stereo not given), the cytotoxicity at 70.5 h is -3.14%.
Then `CCC(C(=O)NCCc1nc(C)cc(C(F)(F)F)n1)n1cccn1` (stereo not given), with 20%; and `CN(C)c1ncccc1C(=O)N1CCN(C2=NCC(C)(C)S2)CC1`, with 6.73%; and `CCOc1ccccc1C(CC(=O)Nc1ccncc1)NC(C)=O` (stereo not given), with -7.74%.
Take `CS(=O)(=O)c1ccccc1N[C@@H]1c2ccccc2C[C@@H]1O`: the cytotoxicity at 70.5 h stood at 21.1%.
Then `Cn1cnc(-c2nc(C(=O)NC3CC3)c3ccccn23)c1`, with -1.89%; and `Cc1cc(C)n(CC(=O)N2CCCCC2CCN2CCCC2=O)c(=O)n1` (stereo not given), with -12.3%; and `Cn1cc(CC2CC(=O)N(Cc3ccc(Cl)cc3)C2=O)cn1` (stereo not given), with 24.4%.
For `NC(=O)c1cc2c(nc1N)CCN(C(=O)C1CCCCC1)C2`, the cytotoxicity at 70.5 h is 7.07%.
As for `CC(C)Nc1ccnc(-c2ccnc3c2ccn3C)n1`, the figure is -9.28%; as for `CC/C=C(/C)C(=O)N1CSCC1C(=O)N(C)CCc1ccncc1` (stereo not given), -4.98%.
As for `Cc1noc(C)c1CCCNc1cnccn1`, the cytotoxicity at 70.5 h is -16.9%.
Then `CCN1CCC(c2cncc(N(C)C)n2)CC1`, with 1.63%; and `COc1ccc(C)cc1CN(C)CC(=O)NC1(C)CCS(=O)(=O)C1` (stereo not given), with -15.5%; and `Cc1cnn(CC2CN(CC(=O)Nc3ccncc3)CCO2)c1` (stereo not given), with -5.95%.
As for `CC(c1ccccc1F)N(C(=O)CSCC(N)=O)C1CC1` (stereo not given), the figure is 5.29%.

Source of the values: ChEMBL document CHEMBL3507680, “University of Dundee, Gates Library screen for HepG2 cell viability”.
